Measurements from US20110172097A1, “Imidazole and Triazole Compounds, Their Use and Agents Containing The Same” (BASF SE, priority 2008, published 2011).

Columns and labels:
[1] = system: Phakopsora pachyrhizi; assay: Example G1 - Curative activity against soybean rust caused by Phakopsora pachyrhizi (greenhouse); type: in vivo, Phakopsora pachyrhizi on soybean seedlings; details: 300 ppm, curative spray 24 h after inoculation, assessed after 14 days, untreated plants 90% infected
[2] = system: Pyricularia oryzae; type: cell-based; details: day 7, 405 nm, active compound-free control = 100%
[3] = system: Septoria tritici; assay: CG1 - Protective activity against Septoria leaf spot of wheat caused by Septoria tritici (greenhouse); type: in vivo, Septoria tritici on wheat seedlings; details: protective spray 24 h before inoculation, assessed after 21 days, % infection of total leaf area, untreated control 90
Protocol: Subsequently, it was made up to 100 ml with water. This stock solution was diluted with the described solvent/emulsifier/water mixture to the active compound concentration indicated below. Alternatively, the active compounds were used as a commercially available ready-to-use solution and diluted with water to the active compound concentration indicated. CG1 Protective Activity Against Septoria Leaf Spot of Wheat Caused by Septoria tritici Leaves of potted wheat seedlings were sprayed to run off point with an aqueous suspension having the active compound concentration stated below. 24 hours after the spray coating had dried on, they were inoculated with an aqueous spore suspension of Septoria tritici. The test plants were then placed in a greenhouse at temperatures between 18 and 22° C. and a relative atmospheric humidity close to 100% for 4 days and then at temperatures between 18 and 22° C. and an atmospheric humidity of about 70%. After 21 days, the extent of the development of the disease was determined visually in % infection of the total leaf area.

Structure (SMILES)	Growth (%) at 31 ppm CM1 [2] [%]	Infection (%) at 600 ppm CG1 [3] [%]	also measured
CC(C)(CCCC(C(O)C(C)(C)C)n1cncn1)c1ccccc1 (centres unmarked) [I.A1b, 2,2,8-trimethyl-8-phenyl-4-[1,2,4]triazol-1-ylnonan-3-ol]	–	–	extent of the rust fungus development on the leaves in % infection [1]: 0%
CC(C)(C)C(O)C(CCCCc1ccccc1)n1cncn1 (centres unmarked) [reference compound]	61	–	–
CC(C)(C)C(O)C(CCCCc1ccc(Cl)cc1)n1cncn1 (centres unmarked) [reference compound]	–	40	–
CC(C)(CCCC(C(O)C(C)(C)C)n1cncn1)c1ccccc1 (centres unmarked) [I.A1a, 2,2,8-trimethyl-8-phenyl-4-[1,2,4]triazol-1-ylnonan-3-ol]	26	–	–
CC(C)(C)C(O)C(CCCCc1ccc(F)cc1)n1cncn1 (centres unmarked) [I.A5a, 8-(4-fluorophenyl)-2,2-dimethyl-4-[1,2,4]triazol-1-yloctan-3-ol]	–	10	–
